Read-outs that look alike come from different tables or passages of the source.
Key:
[1] = amide bond, DMF, 25.0 °C
[2] = molecular target: IRAK4 (Homo sapiens (Human), UniProt Q9NWZ3); experiment: IRAK4 enzymatic assay; format: biochemical; details: His-TEV-IRAK4, ATP 2 μM, STK1-biotin peptide 300 nM, 3 hours at 30° C.
Method: IRAK4 is a human purified recombinant enzyme (His-TEV-IRAK1 (194-712) IRAK4 hydrolyses ATP, autophosphorylates and phosphorylates a Serine/Threonine generic peptidic substrate (STK: 61ST1BLC from CisBio International based in Bagnols/Cèze FR).
Measurement of IRAK-4 inhibition is performed in streptavidin coated 384 well FlashPlate (PerkinElmer #SMP410A). His-TEV-IRAK4 (20 ng/well), ATP (2 μM, [^33P]ATP 0.25 μCi/well), STK1-biotin peptide (300 nM) and compounds in DMSO (range of concentrations from 20 μM to 1 nM) or controls (2% DMSO) are incubated for 3 hours at 30° C. in assay buffer: Hepes pH 7.0 50 mM, Fatty acid-free BSA 0.1%, Dithiothreitol DTT 2 mM, MgCl2 10 mM, EGTA 0.5 mM, Tween-20 0.01%, MnCl2 5 mM.
Kinase reaction is stopped by addition of EDTA. Supernatant is discarded, plates are washed three times with 150 mM NaCl and radioactivity is then measured in a Microbeta Trilux reader.

[3] = system: TLR7 induced IL-6 secretion in human mononuclear cells (PBMC's); experiment: TLR7 induced IL-6 in human PBMC's; format: cell-based; details: TLR7 specific ligand 2 uM overnight, IL-6 AlphaLISA
Method: TLR7 Induced IL-6 in Human PBMC's
Human PBMC assay is used as one of the functional assay to monitor the activity of IRAK1 and IRAK4 small molecule inhibitors on TLR7 induced IL-6 secretion in human mononuclear cells (PBMC's). Human PBMCs are prepared from buffy coats (whole blood enriched with leukocytes and platelets) obtained from healthy volunteers used either fresh or frozen are plated in assay media (RPMI+2% P/S/L-glu+10% HI-FBS) and pre-treated with compounds in DMSO/media (range of concentrations from 25 μM to 0.4 nM) or controls (0.25% DMSO) for 30 minutes at 37° C. in assay media. Following pre-treatment with IRAK1 and IRAK4 inhibitors, PBMC's are stimulated with TLR7 specific ligand (2 uM) overnight (16-18 hrs) at 37° C. After incubation supernatant is transferred to 384 well PE AlphaPlate-384 (6005350) and IL-6 is quantified using Perkin Elmer IL-6 Alpha LISA kit (AL223C). Plates are read on an Envision® plate reader with Alpha Technology®.

[4] = molecular target: IRAK1 (Homo sapiens (Human), UniProt P51617); experiment: IRAK1 enzymatic assay; format: biochemical; details: His-TEV-IRAK-1, ATP 1 μM, 3 hours at 30° C.
Method: IRAK1 is a human purified recombinant enzyme (His-TEV-IRAK1 (194-712)) In this assay, IRAK-1 hydrolyses ATP and autophosphorylates.
Measurement of IRAK-1 inhibition is performed in streptavidin coated 384 well FlashPlate (PerkinElmer #SMP410A).
His-TEV-IRAK-1 (15 ng/well), ATP (1 μM, [^33P]ATP 0.25 μCi/well) and compounds in DMSO (range of concentrations from 20 μM to 1 nM) or controls (2% DMSO) are incubated for 3 hours at 30° C. in assay buffer: Hepes pH 7.0 50 mM, Fatty acid-free BSA 0.1%, Dithiothreitol DTT 2 mM, MgCl2 10 mM, EGTA 0.5 mM, Triton-X-100 0.01%. Kinase reaction is stopped by addition of EDTA. Supernatant is discarded, plates are washed three times with 150 mM NaCl and radioactivity is then measured in a Microbeta Trilux reader.

[5] = amide bond, DMF, 25.0 °C; remark: listed apart in the source

IRAK4, sequence (Q9NWZ3 whole entry): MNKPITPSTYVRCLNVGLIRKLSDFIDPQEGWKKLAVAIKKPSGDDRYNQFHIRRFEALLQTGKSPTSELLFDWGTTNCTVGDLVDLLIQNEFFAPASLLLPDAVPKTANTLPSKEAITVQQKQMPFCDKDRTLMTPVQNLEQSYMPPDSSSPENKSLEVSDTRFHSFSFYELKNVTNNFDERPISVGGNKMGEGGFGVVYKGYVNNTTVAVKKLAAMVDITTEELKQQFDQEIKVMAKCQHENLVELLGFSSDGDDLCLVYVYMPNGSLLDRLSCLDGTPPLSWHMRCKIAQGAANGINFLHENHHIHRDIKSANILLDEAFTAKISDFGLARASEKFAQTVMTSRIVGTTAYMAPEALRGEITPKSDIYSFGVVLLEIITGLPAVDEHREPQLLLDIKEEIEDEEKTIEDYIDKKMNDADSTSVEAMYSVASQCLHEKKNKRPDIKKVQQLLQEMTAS
IRAK1, sequence (P51617 194-712): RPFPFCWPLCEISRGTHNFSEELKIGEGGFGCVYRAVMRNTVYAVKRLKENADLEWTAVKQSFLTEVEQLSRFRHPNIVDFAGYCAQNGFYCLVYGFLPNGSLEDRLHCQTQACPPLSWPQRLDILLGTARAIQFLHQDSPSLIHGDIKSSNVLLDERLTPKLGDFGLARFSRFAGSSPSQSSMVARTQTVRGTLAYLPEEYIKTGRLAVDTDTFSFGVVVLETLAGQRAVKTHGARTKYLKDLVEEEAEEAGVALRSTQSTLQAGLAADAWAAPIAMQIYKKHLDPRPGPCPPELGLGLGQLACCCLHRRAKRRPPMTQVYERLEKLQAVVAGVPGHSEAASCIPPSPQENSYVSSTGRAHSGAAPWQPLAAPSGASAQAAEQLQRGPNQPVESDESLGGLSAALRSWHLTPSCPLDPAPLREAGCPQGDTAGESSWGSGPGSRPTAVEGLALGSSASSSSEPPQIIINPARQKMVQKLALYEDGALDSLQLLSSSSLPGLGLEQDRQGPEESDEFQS

Compound | IC50 [2] [nM] | IC50 [4] [nM] | ring closure, isolated yield ([1]; from Nc1nc2ccccc2n1CC(O)C1CCCN(c2ccc(=O)n(Cc3cccc(C(=O)[O-])c3)n2)C1, 16-membered ring, HATU/HOAt/DMAP/DIEA, 1.27 mM) [%] | IC50 [3] [nM] | ring closure, isolated yield ([1]; from Nc1nc2ccccc2n1Cc1cccc(-c2ccc(=O)n(Cc3cccc(C(=O)[O-])c3)n2)c1, 15-membered ring, HBTU/HOBt/NMM, 10.0 mM) [%] | ring closure, yield of all isomers ([5]; from Nc1nc2ccccc2n1Cc1cccc(-c2ccc(=O)n(Cc3cccc(C(=O)O)c3)n2)c1, HBTU/HOBt/N-methylmorpholine, 10.0 mM, 15.0 h) [%] | ring closure, isolated yield ([1]; from potassium 3-{3-[4-(2-Amino-benzoimidazol-1-yl)-3-hydroxy-butoxy]-6-oxo-6H-pyridazin-1-ylmethyl}-benzoic acetate, 16-membered ring, HATU/HOAt/DMAP/DIEA, 2.4 mM) [%] | ring closure, yield of all isomers ([5]; from Nc1nc2ccccc2n1CC(O)CCOc1ccc(=O)n(Cc2cccc(C(=O)O)c2)n1, HATU/HOAt/DMAP/DIPEA, 2.44 mM, 14.0 h) [%]
O=C1Nc2nc3ccccc3n2CC(O)C2CCCN(C2)c2ccc(=O)n(n2)Cc2cccc1c2 (centres unmarked) |  |  | 16 |  |  |  |  | 
O=C1Nc2nc3ccccc3n2Cc2cccc(c2)-c2ccc(=O)n(n2)Cc2cccc1c2 [Compound 1, 8,15,17,25,29-pentaazahexacyclo[23.3.1.1^2,61^19,230^8,160^9,14]hentriaconta-1(29),2(31),3,5,9(14),10,12,15,19(30),20,22,27-dodecaene-18,26-dione] | < 100 | < 100 |  | 100 to 1000 | 26 | 26 |  | 
O=C1Nc2nc3ccccc3n2CCc2cccc(c2)-c2ccc(=O)n(n2)Cc2cccc1c2 [Compound 2, 6,14,16,23,32-pentaazahexacyclo[24.3.1.1^2,6.1^8,12.0^15,23.0^17,22]dotriaconta-1(30),2(32),3,8,10,12(31),15,17(22),18,20,26,28-dodecaene-5,13-dione] | < 100 | < 100 |  | 100 to 1000 |  |  |  | 
COc1cc2nc3n(c2cc1OC)Cc1cccc(c1)-c1ccc(=O)n(n1)Cc1cccc(c1)C(=O)N3 [Compound 5, 11,12-dimethoxy-8,15,17,25,29-pentaazahexacyclo[23.3.1.1^2,61^19,23.0^8,16.0^9,14]hentriaconta-1(29),2(31),3,5,9(14),10,12,15,19(30),20,22,27-dodecaene-18,26-dione] | < 100 | < 100 |  | < 100 |  |  |  | 
Cc1ccc2cc1-c1ccc(=O)n(n1)Cc1cccc(c1)C(=O)Nc1nc3ccccc3n1C2 [Compound 8, 3-Methyl-8,15,17,25,29-pentaazahexacyclo[23.3.1.1^2,61^19,230^8,160^9,14]hentriaconta-1(29),2(31),3,5,9(14),10,12,15,19(30),20,22,27-dodecaene-18,26-dione] | < 100 | < 100 |  | 100 to 1000 |  |  |  | 
O=C1Nc2nc3ccccc3n2Cc2ccc(O)c(c2)-c2ccc(=O)n(n2)Cc2cccc1c2 [Compound 12, 3-hydroxy-8,15,17,25,29-pentaazahexacyclo[23.3.1.1^2,6.1^19,23.0^8,16.0^9,14]hentriaconta-1(29),2(31),3,5,9(14),10,12,15,19(30),20,22,27-dodecaene-18,26-dione] | < 100 | < 100 |  | 1000 to 5000 |  |  |  | 

Now from value to compound, other results behind:

IC50 [2] [nM] | IC50 [4] [nM] | Compound | ring closure, isolated yield ([1]; from Nc1nc2ccccc2n1CC(O)C1CCCN(c2ccc(=O)n(Cc3cccc(C(=O)[O-])c3)n2)C1, 16-membered ring, HATU/HOAt/DMAP/DIEA, 1.27 mM) [%] | IC50 [3] [nM] | ring closure, isolated yield ([1]; from Nc1nc2ccccc2n1Cc1cccc(-c2ccc(=O)n(Cc3cccc(C(=O)[O-])c3)n2)c1, 15-membered ring, HBTU/HOBt/NMM, 10.0 mM) [%] | ring closure, yield of all isomers ([5]; from Nc1nc2ccccc2n1Cc1cccc(-c2ccc(=O)n(Cc3cccc(C(=O)O)c3)n2)c1, HBTU/HOBt/N-methylmorpholine, 10.0 mM, 15.0 h) [%] | ring closure, isolated yield ([1]; from potassium 3-{3-[4-(2-Amino-benzoimidazol-1-yl)-3-hydroxy-butoxy]-6-oxo-6H-pyridazin-1-ylmethyl}-benzoic acetate, 16-membered ring, HATU/HOAt/DMAP/DIEA, 2.4 mM) [%] | ring closure, yield of all isomers ([5]; from Nc1nc2ccccc2n1CC(O)CCOc1ccc(=O)n(Cc2cccc(C(=O)O)c2)n1, HATU/HOAt/DMAP/DIPEA, 2.44 mM, 14.0 h) [%]
< 100 | < 100 | O=C1Nc2nc3ccccc3n2C[C@H](O)[C@H]2CCCN(C2)c2ccc(=O)n(n2)Cc2cccc1c2 (stereo in doubt) [Compound 32b, 25-hydroxy-1,6,14,16,23,32-hexaazahexacyclo[24.3.1.1^2,6.1^8,12.0^15,23.0^17,22]dotriaconta-2(32),3,8(31),9,11,15,17(22),18,20-nonaene-5,13-dione] |  | 100 to 1000 |  |  |  | 
< 100 | < 100 | O=C1Nc2nc3ccccc3n2Cc2cc(ccn2)-c2ccc(=O)n(n2)Cc2cccc1c2 [Compound 16] |  | < 100 |  |  |  | 
< 100 | < 100 | O=C1Nc2nc3ccccc3n2CC(O)c2cccc(c2)-c2ccc(=O)n(n2)Cc2cccc1c2 (centres unmarked) [Compound 17] |  | < 100 |  |  |  | 
< 100 | < 100 | O=C1Nc2nc3ccccc3n2CC(O)CCOc2ccc(=O)n(n2)Cc2cccc1c2 (centres unmarked) [Compound 18, 20-hydroxy-23-oxa-1,9,11,18,28-pentaazapentacyclo[22.3.1.1^3,7.0^10,18.0^12,17]nonacosa-3,5,7(29),10,12(17),13,15,24(28),25-nonaene-8,27-dione] |  | 100 to 1000 |  |  | 7 | 7
< 100 | < 100 | O=C1Nc2nc3ccccc3n2Cc2cc(ccc2O)-c2ccc(=O)n(n2)Cc2cccc1c2 [Compound 20, 5-hydroxy-8,15,17,25,29-pentaazahexacyclo[23.3.1.1^2,6.1^19,23.08,16.0^9,14]hentriaconta-1(29),2(31),3,5,9(14),10,12,15,19(30),20,22,27-dodecaene-18,26-dione] |  | < 100 |  |  |  | 
< 100 | < 100 | O=C(O)c1ccc2c(c1)nc1n2Cc2cccc(c2)-c2ccc(=O)n(n2)Cc2cccc(c2)C(=O)N1 [Compound 21] |  | 100 to 1000 |  |  |  | 
< 100 | < 100 | CC(=O)NCCc1ccc2c(c1)nc1n2Cc2cccc(c2)-c2ccc(=O)n(n2)Cc2cccc(c2)C(=O)N1 [Compound 25] |  | < 100 |  |  |  | 
